Experimental data from article PMC5701947, “β1-Adrenergic Receptor Contains Multiple IA^k and IE^k Binding Epitopes That Induce T Cell Responses with Varying Degrees of Autoimmune Myocarditis in A/J Mice” (Frontiers in Immunology, 2017).
“Also recorded” adds a separate entry of the source.

What was measured:
rabbits, rats, and mice = details: cited from earlier work
Excerpt: While, an assumption made in these studies that a single epitope of β1AR can act as an immunogen in various species despite the major histocompatibility complex (MHC) alleles to be different was found valid, identification of other potential immunodominant epitopes, if any, was not explored. Lik ... || In this report, we describe identification of T cell epitopes of β1AR in A/J mice that are highly susceptible to lymphocytic myocarditis induced by various cardiac antigens namely, Myhc ([28]), cardiac troponin I ([47]), ANT ([26]), and BCKD kinase ([30]). Importance of β1AR in the cardiac disease has long been investigated in that patients with myocarditis/DCM, in particular, IDCM show β1AR-reactive antibodies.

A/J mice (hearts) = assay: Induction of myocarditis by active immunization with peptides (histology); format: in vivo; details: for Myocarditis incidence / Myocarditis incidence (animals with disease/total) / Inflammatory foci: individual non-acetylated peptide, 100 µg per animal; for Myocarditis incidence / Myocarditis incidence (animals with disease/total): CFA/PT, days 0 and 7, day 21; for Inflammatory foci: mean ± SEM of myocarditic animals
[1] = tested on: T cells (lymph node cells/splenocytes from immunized animals); assay: T cell proliferation assay ([3H]-thymidine); format: cell-based, A/J mice; details: for T cell responses: fold vs medium control; for T cell responses (in words): proliferation, 0–100 µg/ml, 2 days + 16 h [3H]-thymidine, cpm
Procedure: At termination, lymph nodes (maxillary, mandibular, axillary, inguinal, and popliteal) and spleens were harvested from immunized animals to prepare single cell suspensions. Similarly, splenocytes were prepared from naive animals. After lysing the erythrocytes and washing, cell pellets were suspended in RPMI medium containing 10% fetal bovine serum, 1 mM sodium pyruvate, 4 mM L-glutamine, 1 × each of non-essential amino acids and vitamin mixture, and 100 U/ml penicillin–streptomycin (Lonza, Walkersville, MD, USA; hereafter called growth medium). In some experiments, CD4 T cells and CD8 T cells were enriched to a purity of ~95% by negative selection based on magnetic separation using IMAG (BD Biosciences, San Jose, CA, USA) ([31]). To stimulate CD4 and CD8 T cells, syngeneic naive irradiated splenocytes loaded with peptides were used as antigen-presenting cells at a ratio of 1:1. Cells were stimulated at a density of ~5 × 10^6 cells/ml in triplicates with or without the immunizing peptides (0–100 µg/ml) in growth medium. RNase 43–56 or HEL 46–61 were used as irrelevant controls. After 2 days, cells were pulsed with tritiated ^3[H]-thymidine (1 μCi/well; MP Biomedicals, Santa Ana, CA, USA), and 16 h later, proliferative responses were measured as counts per minute (cpm) using a Wallac liquid scintillation counter (Perkin Elmer, Waltham, MA, USA) ([26], [28], [30]).

[2] = 10 μg/ml, animals immunized with pool IV
[3] = 100 μg/ml, animals immunized with pool IV
[4] = 10 μg/ml, animals immunized with pool VIII
[5] = 100 μg/ml, animals immunized with pool VIII
[6] = 10 μg/ml, animals immunized with pool IX
[7] = 100 μg/ml, animals immunized with pool IX

Row | Substance | Myocarditis incidence (A/J mice (hearts)) [%] | Myocarditis incidence (animals with disease/total) (A/J mice (hearts)) | Inflammatory foci (A/J mice (hearts)) | T cell responses [1, 2] [fold] | T cell responses [1, 3] [fold] | T cell responses [1, 6] [fold] | T cell responses [1, 7] [fold] | also measured
1 | HWWRAESDEARRCYNDPKCCDFVTNR [β1AR 197–222] |  |  |  |  |  |  |  | Cardiac abnormalities in Balb/c mice (in words) (rabbits, rats, and mice; Balb/c mice): cardiac abnormalities could be detected in Balb/c mice only at 25 weeks but not at 14 weeks postimmunization; Antibody induction in rodent species (in words) (rabbits, rats, and mice): shown to induce antibodies in various rodent species; Cardiomyopathy on prolonged immunization (in words) (rabbits, rats, and mice; monthly/biweekly immunizations for 6–18 months): developed cardiac dysfunctions suggestive of DCM, with minimal or no heart infiltrates; also recorded: can develop features of cardiomyopathy during the course of ~1 year with little or no myocarditis; Cardiomyopathic changes in rats (in words) (rabbits, rats, and mice; rats, prolonged immunization): early cardiomyopathic changes at 1 year, but with no necrosis or fibrosis including changes in heart to body weight ratios
2 | NDPKCCDFVTNRAYAIASSV [β1AR 211-230, 20-mer of mouse β1AR peptide library] | 40 | 2/5 | 2.0 ± 1.0 | 3.15 | 3.27 |  |  | Disease severity (in words) (A/J mice (hearts); individual immunization, non-acetylated peptides): mild disease
3 | β1AR 191-210: 20-mer of mouse β1AR peptide library (FLPILMHWWRAESDEARRCY; UniProt P34971 191-210, looked up, fragment) | 0 | 0/5 | 0 | 1.26 | 1.63 |  |  | 
4 | β1AR 201-220: 20-mer of mouse β1AR peptide library (AESDEARRCYNDPKCCDFVT; UniProt P34971 201-220, looked up, fragment) | 0 | 0/5 | 0 | 1.08 | 1.37 |  |  | 
5 | β1AR 381-400: 20-mer of mouse β1AR peptide library (CCARRAACRRRAAHGDRPRA; UniProt P34971 381-400, looked up, fragment) | 0 | 0/5 | 0 |  |  |  |  | T cell responses [1, 4]: 1.10 fold; T cell responses [1, 5]: 1.45 fold; T cell responses (in words) [1]: did not show T cell responses
6 | β1AR 391-410: 20-mer of mouse β1AR peptide library (RAAHGDRPRASGCLARAGPP; UniProt P34971 391-410, looked up, fragment) | 0 | 0/5 | 0 |  |  |  |  | T cell responses [1, 4]: 1.03 fold; T cell responses [1, 5]: 1.18 fold; T cell responses (in words) [1]: did not show T cell responses
7 | β1AR 431-450: 20-mer of mouse β1AR peptide library (RLLEPWTGCNGGTTTVDSDS; UniProt P34971 431-450, looked up, fragment) |  |  |  |  |  | 1.14 | 1.18 | 
8 | β1AR 441-460: 20-mer of mouse β1AR peptide library (GGTTTVDSDSSLDEPGRQGF; UniProt P34971 441-460, looked up, fragment) |  |  |  |  |  | 0.79 | 1.01 | 
9 | β1AR 451-466: 16-mer of mouse β1AR peptide library (SLDEPGRQGFSSESKV; UniProt P34971 451-466, looked up, fragment) |  |  |  |  |  | 0.95 | 1.16 | 
